Columns and labels:
Slc:ddY mice [1] = assay: Mouse Y-shaped maze test, scopolamine-induced memory impairment; assay type: in vivo; conditions: for spontaneous alternations: Scopolamine HBr 0.6 mg/kg subcutaneous
Procedure: Evaluation of amelioration in cognitive impairment using mouse Y-shaped maze test (hereinafter, may be called “Y-maze test”)
In the Y-maze test using Slc:ddY mice (male, Japan SLC, Inc.) with body weight of 25-35 g or 27-30 g, when 0.6 mg/kg of Scopolamine HBr (cat. No. S0929, Sigma Aldrich, USA) is subcutaneously administered to mice, memory impairment is caused, and reducing in spontaneous alternation is observed. Accordingly, mice were pre-treated by orally receiving compounds involved with the present invention, and ameliorating action in memory impairment was evaluated. […] (hereinafter, spontaneous alternations in each group in Example 21 are shown: 0.5% MC receiving group, 71.2±3.5; Scopolamine receiving group, 47.5±2.6; 1 mg/kg receiving group, 60.7±2.6; 3 mg/kg receiving group, 64.6±2.2.)

Slc:ddY mice [2] = assay: Mouse novel object recognition test (mORT); assay type: in vivo
Procedure: Evaluation of cognitive function using mouse novel object recognition test (hereinafter, may be called “mORT”)
In the mORT using Slc:ddY mice (male, Japan SLC, Inc.) with body weight of 25-45 g or 35-40 g, memory deterioration to familiar subject depending on the interval time between the first trial (training) and the second trial (test) is observed. If the second trial is performed 24 hours after performing the first trial, significant forgetting is observed. […] […] (discrimination index as indexes for cognitive function are shown: 0.5% MC receiving group, 0.054±0.026; 3 mg/kg receiving group, 0.245±0.066.)

SSTR1 = target: T1, SSTR1 (Homo sapiens, UniProt P30872); assay: Binding affinity using cell membrane from cells expressing SSTR subtypes
T1 construct: expressed in transfected cells

SSTR3 = target: T2, SSTR3 (Homo sapiens, UniProt P32745); assay: as above
T2 construct: expressed in transfected cells

SSTR5 = target: T3, SSTR5 (Homo sapiens, UniProt P35346); assay: as above
T3 construct: expressed in transfected cells

Crlj: WI rats = assay: Acetylcholine release enhancing action, hippocampus microdialysis test using rats; assay type: in vivo, rat; conditions: 10 mg/kg (oral), 60 minutes after administration, high potassium stimulation
Procedure: Examination of Acetylcholine Release Enhancing Action with Microdialysis Test Using Rats
A guide cannula was placed into the hippocampus of Crlj: WI rats, and microdialysis was performed by inserting a probe after the animals were recovered. After administering the compounds involved with the present invention, the hippocampus was stimulated by changing the perfusate into the high potassium solution for 15 minutes. Acetylcholine levels in the perfusate were analyzed with a HPLC-ECD apparatus.

[3] = test system: SH-SY5Y cells stably expressing human neprilysin/human SSTR4; assay: Neprilysin membrane translocation test using human neprilysin/human SSTR4 coexpressing cells; assay type: cell-based
Procedure: Neprilysin Membrane Translocation Test Using Human Neprilysin/Human SSTR4 Coexpressing Cells
SH-SY5Y cells stably expressing human neprilysin/human SSTR4 were seeded to culture plates, and incubated in a 37° C./5% CO2 incubator overnight. On the next day, the compounds involved with the present invention were added, and cells were incubated in the 37° C./5% CO2 incubator another night. On the next day, 4% paraformaldehyde was added, and cells were fixed. The cells were washed, and blocked with 3% BSA solution. Then, immunostaining with an anti-neprilysin antibody and Alexa Fluor 488 donkey anti-mouse IgG was performed, and analyzed with an IN CELL Analyzer.

Tg 2576 mice [4] = assay: Cognitive function improving action (mORT) using Tg 2576 mice; assay type: in vivo, mouse; conditions: 30 mg/kg/day mixed in feed for 4 months
Procedure: (§1) Evaluation of Cognitive Function Improving Action and Aβ Reducing Action Using Tg 2576 Mice
(§2) Four-month-old Tg 2576 mice received compounds involved with the present invention mixed in feed for 4 months. After completion of administration, the mORT test was performed to evaluate cognitive function, then the amount of brain Aβ was measured by ELISA. […] Discrimination index as indexes for evaluating cognitive function were as follows (vehicle, 0.064±0.049, 30 mg/kg/day; 0.330±0.062).

Tg 2576 mice [5] = assay: Aβ reducing action (brain Aβ by ELISA) using Tg 2576 mice; assay type: in vivo, mouse
Procedure: as §1, §2

[6] = Pharmacokinetic test (PK test) using rodents; assay type: in vivo; conditions: mouse, brain and plasma; mice, 10 mg/kg oral, an hour and 4 hours after; read-out: brain-plasma concentration ratio
Procedure: Moreover, it was verified, as the results of a pharmacokinetic test (PK test) using rodents, that the compound of the present invention has more excellent in vivo kinetics, central nervous system penetration, and exposure level, compared with the pyrrolidine derivative described in Patent Literature 1. In particular, the following Test Example 8 was performed.
Pharmacokinetic Test (PK Test) Using Rodents
Compounds of the present invention were orally administered to mice at a dose of 10 mg/kg, and an hour and 4 hours after, the plasma and the brain were collected, concentrations of the administered compounds were measured by LC/MS/MS. As well, protein binding rates in the plasma and the brain were measured with equilibrium dialysis method, and concentrations of non-binding compounds were calculated. The brain-plasma concentration ratio was about 5 in any cases of an hour and 4 hours after for compounds obtained in Examples 7, 14, 15, 16, 17, 18, 20, 21, 27, 40, and 50, which indicated excellent central nervous system penetration.

[7] = 3 mg/kg oral, given after the first trial

T2 sequence (P32745 whole entry, species assumed): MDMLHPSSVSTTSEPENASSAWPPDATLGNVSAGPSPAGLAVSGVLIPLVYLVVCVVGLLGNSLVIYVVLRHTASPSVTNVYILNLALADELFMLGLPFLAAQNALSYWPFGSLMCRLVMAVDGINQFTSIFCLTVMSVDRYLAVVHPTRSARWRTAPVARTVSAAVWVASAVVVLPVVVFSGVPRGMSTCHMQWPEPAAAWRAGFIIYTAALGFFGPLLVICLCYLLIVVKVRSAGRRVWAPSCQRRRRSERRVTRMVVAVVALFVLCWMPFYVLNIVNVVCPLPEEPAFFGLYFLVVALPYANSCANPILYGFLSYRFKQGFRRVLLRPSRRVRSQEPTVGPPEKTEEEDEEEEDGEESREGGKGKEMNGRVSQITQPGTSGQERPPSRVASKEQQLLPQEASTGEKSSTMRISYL
T3 sequence (P35346 whole entry, species assumed): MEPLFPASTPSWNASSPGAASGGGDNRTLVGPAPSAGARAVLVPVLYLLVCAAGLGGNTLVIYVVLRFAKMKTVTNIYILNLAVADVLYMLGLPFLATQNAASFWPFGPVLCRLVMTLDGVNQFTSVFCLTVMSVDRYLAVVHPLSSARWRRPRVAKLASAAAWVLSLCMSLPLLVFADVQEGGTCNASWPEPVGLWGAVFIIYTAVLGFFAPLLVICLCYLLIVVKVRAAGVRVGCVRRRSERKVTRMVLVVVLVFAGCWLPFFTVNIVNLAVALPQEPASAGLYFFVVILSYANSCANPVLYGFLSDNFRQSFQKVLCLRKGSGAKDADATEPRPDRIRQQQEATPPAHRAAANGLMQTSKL
T1 sequence (P30872 whole entry, species assumed): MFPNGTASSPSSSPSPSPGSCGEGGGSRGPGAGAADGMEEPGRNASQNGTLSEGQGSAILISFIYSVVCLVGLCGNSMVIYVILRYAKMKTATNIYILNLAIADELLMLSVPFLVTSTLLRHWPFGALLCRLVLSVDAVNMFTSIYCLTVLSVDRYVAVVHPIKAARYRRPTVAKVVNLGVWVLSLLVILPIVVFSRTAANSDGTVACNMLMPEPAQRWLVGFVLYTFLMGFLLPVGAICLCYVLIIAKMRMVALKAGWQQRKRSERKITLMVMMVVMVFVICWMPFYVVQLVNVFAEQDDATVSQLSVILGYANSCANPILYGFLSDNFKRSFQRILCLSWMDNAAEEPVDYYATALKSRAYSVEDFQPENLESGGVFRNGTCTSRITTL

Ki (SSTR1): 1570 nM
Ki (SSTR3): > 3000 nM
Ki (SSTR5): > 5000 nM
EC50 ([3]; Homo sapiens, SH-SY5Y, overnight incubation, immunostaining, IN CELL Analyzer): 9.3 nM
Kp [6]: ~5
Structure (SMILES): CN1CCC[C@H](C(=O)NC(C)(C)c2cc(Cl)ccc2Cl)C1 [Example 21, (3S)—N-[2-(2,5-dichlorophenyl)propane-2-yl]-1-methylpiperidine-3-carboxamide]
spontaneous alternations (Slc:ddY mice [1]; 1 mg/kg oral): 60.7±2.6
spontaneous alternations (Slc:ddY mice [1]; 3 mg/kg oral): 64.6±2.2
ameliorating action in memory impairment (Slc:ddY mice [1]; at 1 or 3 mg/kg (oral)): significant ameliorating action in memory impairment
memory enhancing action (Slc:ddY mice [2]; 3 mg/kg (oral), administered before the first trial): significant memory enhancing action
discrimination index (Slc:ddY mice [2]; 3 mg/kg oral, administered before the first trial, second trial 24 hours later): 0.214±0.072
discrimination index (Slc:ddY mice [2]; [7]): 0.245±0.066
memory enhancing action (Slc:ddY mice [2]; [7]): significant memory enhancing action
acetylcholine level in hippocampus perfusate compared with the Vehicle (Crlj: WI rats): significantly enhanced acetylcholine level
translocation of neprilysin to cell membrane [3]: concentration-dependently induced the translocation of neprilysin to cell membrane
cognitive function improving action (Tg 2576 mice [4]): significant cognitive function improving action
discrimination index (Tg 2576 mice [4]): 0.330±0.062
hippocampus Aβ42 reducing action compared with the Vehicle (Tg 2576 mice [5]; 100 mg/kg/day): significant hippocampus Aβ42 reducing action
hippocampus Aβ42 (Tg 2576 mice [5]; 100 mg/kg/day mixed in feed for 4 months): 198.11 ± 26.32 pmol/g

Reference: patent US20160221948A1, “NITROGEN-CONTAINING SATURATED HETEROCYCLIC COMPOUND” (SUMITOMO CHEMICAL COMPANY, LIMITED, priority 2013, published 2016)
